The source of these data is ChEMBL document CHEMBL1152845, “Synthesis, cytotoxicity and apoptosis of naphthalimide polyamine conjugates as antitumor agents” (Eur J Med Chem, 2009).

What is called IC50 is the concentration at which inhibition is half-maximal. A low value points to inhibition by little substance.

Activity calls are given as the source filed them. The rule behind the calls is not given here.

One assay relates to CHO. Put plainly: Cytotoxicity against CHO cells after 48 hrs by MTT assay. To be noted: Cricetulus griseus. The assay is classed as cell-based. (In general: Tetrazolium assays rely on reduction of a dye to a coloured formazan, in cell work by metabolically active cells.)
The test system of another assay is K562. Put plainly: Cytotoxicity against human K562 cells after 48 hrs by MTT assay. The assay is classed as functional, cell-based. Conditions: K562, 48 h.
Assay [1] concerns B16. Briefly: Cytotoxicity against mouse B16 cells after 48 hrs by MTT assay. The class given is functional, cell-based. To be noted: B16, 48 h.
A short description of assay [2]: Cytotoxicity against mouse Mel-A cells after 48 hrs by MTT assay. The assay is classed as cell-based.
A short description of assay [3]: Cytotoxicity against human QSG7701 cells after 48 hrs by MTT assay. To be noted: QSG7701, 48 h. The assay is classed as cell-based.
The next assay concerns Bel-7402. Put plainly: Cytotoxicity against human Bel7402 cells after 48 hrs by MTT assay. The class given is functional, cell-based. Conditions: Bel-7402, 48 h.
Assay [4] deals with B16. Briefly: Induction of apoptosis in mouse B16 cells assessed as increase in caspase-3 cleavage after 48 hrs by Western blot relative to control. The assay is classed as functional, cell-based.
Assay [5] has as its system B16. Briefly: Induction of apoptosis in mouse B16 cells assessed as increase in Bax level after 48 hrs by Western blot relative to control. The assay is classed as functional, cell-based.
Assay [6] has as its system B16. Put plainly: Induction of apoptosis in mouse B16 cells assessed as increase in caspase-8 cleavage after 48 hrs by Western blot relative to control. The class given is functional, cell-based. Background: In western blotting, separated proteins are transferred to a membrane and probed.
Assay [7] has as its system B16. Put plainly: Induction of apoptosis in mouse B16 cells assessed as increase in mitochondrial cytochrome-C release after 48 hrs by Western blot relative to control. The class given is functional, cell-based.
Assay [8] concerns B16. Briefly: Cell cycle arrest in mouse B16 cells by accumulation at S phase at 0.5 uM after 48 hrs by flow cytometry. The assay is classed as functional. (A flow cytometer gives signals particle by particle.)
Assay [9] deals with B16. Briefly: Cell cycle arrest in mouse B16 cells by accumulation at G0/G1 phase at 1.0 uM after 48 hrs by flow cytometry. The assay is classed as functional.
For the next assay, the system named is Calf thymus DNA. Briefly: Binding affinity to calf thymus DNA at 80 uM by spectrophotometry. The class given is nucleic-acid assay. To be noted: Bos taurus.
The subject of assay [10] is B16. Put plainly: Cell cycle arrest in mouse B16 cells by accumulation at G2/M phase at 0.5 uM after 48 hrs by flow cytometry. The class given is functional.
For assay [11], the system named is B16. Put plainly: Induction of apoptosis in mouse B16 cells assessed as sub-G1 DNA content at 1.0 uM after 48 hrs by flow cytometry. The assay is classed as functional.
The subject of assay [12] is B16. Briefly: Induction of apoptosis in mouse B16 cells assessed as sub-G1 DNA content at 2.0 uM after 48 hrs by flow cytometry. The class given is functional.
Assay [13] concerns B16. Put plainly: Cell cycle arrest in mouse B16 cells by accumulation at S phase at 1.0 uM after 48 hrs by flow cytometry. The class given is functional.
The subject of assay [14] is B16. Put plainly: Cell cycle arrest in mouse B16 cells by accumulation at G0/G1 phase at 0.5 uM after 48 hrs by flow cytometry. The assay is classed as functional.
Assay [15] deals with B16. Put plainly: Cell cycle arrest in mouse B16 cells by accumulation at G2/M phase at 2.0 uM after 48 hrs by flow cytometry. The assay is classed as functional.
For assay [16], the system named is B16. Put plainly: Cell cycle arrest in mouse B16 cells by accumulation at G2/M phase at 1.0 uM after 48 hrs by flow cytometry. The assay is classed as functional.
Assay [17] relates to B16. Put plainly: Cell cycle arrest in mouse B16 cells by accumulation at S phase at 2.0 uM after 48 hrs by flow cytometry. The assay is classed as functional.
The subject of assay [18] is B16. Put plainly: Cell cycle arrest in mouse B16 cells by accumulation at G0/G1 phase at 2.0 uM after 48 hrs by flow cytometry. The assay is classed as functional.
Assay [19] has as its system B16. Put plainly: Induction of apoptosis in mouse B16 cells assessed as sub-G1 DNA content at 0.5 uM after 48 hrs by flow cytometry. The class given is functional.
The test system of assay [20] is B16. Put plainly: Induction of apoptosis in mouse B16 cells assessed as increase in caspase-9 cleavage after 48 hrs by Western blot relative to control. The class given is functional, cell-based.
Assay [21] relates to B16. Briefly: Induction of apoptosis in mouse B16 cells assessed as reduction in Bcl2 level after 48 hrs by Western blot relative to control. The class given is functional, cell-based.

Take `NCCCCNCCCCNCCCN1C(=O)c2cccc3cccc(c23)C1=O`: the IC50 is 9.09 µM with CHO, 9.08 µM in the assay on K562 and 5.36 µM in the assay with B16 [1].
As to `NCCCCNCCCCNCc1c2ccccc2cc2ccccc12`, the IC50 was found to be 1.25 µM in the assay with CHO, 8.3 µM in [2], 0.95 µM in the assay on K562 and 1.4 µM with B16 [1].
For `NCCCNCCCCN1C(=O)c2cccc3cccc(c23)C1=O`, the concentration for half-maximal inhibition (IC50) was determined as 20.7 µM with CHO, 11.4 µM in the assay on K562 and 13.9 µM in the assay with B16 [1].
With `NCCCNCCCCNCCCN1C(=O)c2cccc3cccc(c23)C1=O`, the IC50 in [3] is > 50 µM; with CHO, 1.21 µM; with Bel-7402, 1.06 µM; in the assay with K562, 1.64 µM; in the assay with B16 [1] it was 0.62 µM.
As to `Cl.NCCCCNCCCCNCCCCN1C(=O)c2cccc3cccc(c23)C1=O`, the IC50 was > 50 µM in [3]; 2.58 µM in the assay with CHO; 3.56 µM in the assay with Bel-7402; 1.16 µM with K562; 0.69 µM in the assay on B16 [1]. Also, the Activity entry with B16 [4] was “Dose-dependent effect”; with B16 [6], “Dose-dependent effect”; in the assay on B16 [8], 11.7%; in the assay on B16 [9], 65.38%; with B16 [10] it was 18.52%; in the assay on B16 [11], 16.84%. Moreover, the Activity in the assay on B16 [12] stood at 38.63%; with B16 [13], 9.71%; in the assay with B16 [14], 69.78%; in the assay on B16 [15], 34.19%; in the assay with B16 [16] it was 24.91%; in the assay on B16 [17], 7.34%. The Activity in the assay with B16 [18] was 58.47%; in the assay with B16 [19] it was 9.68%; in the assay on B16 [20] it was “Dose-dependent effect”. Besides, the outcome with B16 [5], in the assay on B16 [7], in the assay with Calf thymus DNA and in the assay with B16 [21] was Active.
For the compound `NCCCNCCCCNCCCCN1C(=O)c2cccc3cccc(c23)C1=O`, the IC50 with CHO was 3.43 µM; with K562, 3.84 µM; in the assay on B16 [1], 2.7 µM.
The matching figures for `O=C1NC(=O)c2cccc3cccc1c23`: > 50 µM, > 50 µM and > 50 µM.
